The numbers were not newly measured in US20230210937A1, “COMPOSITIONS AND METHODS FOR THE TREATMENT AND/OR PROPHYLAXIS OF DIABETES AND OTHER CONDITIONS” (LIFELOCK BIOSCIENCE SOLUTIONS INC., priority 2019, published 2023), which cites them from elsewhere.

In series [1] the test system is colon cancer cell line Caco-2.
The target of series [2] is PAK1 (Rattus norvegicus, UniProt P35465). Particulars: skeletal muscle cells, co-immunoprecipitation.
For series [3], the target named is mTORC1 (Homo sapiens, UniProt P42345).
Setting [4] is: Caco-2, 100 ng/mL PMA, 2.5 mM IP6.

Sequence of PAK1 (P35465 2-544 limits assumed): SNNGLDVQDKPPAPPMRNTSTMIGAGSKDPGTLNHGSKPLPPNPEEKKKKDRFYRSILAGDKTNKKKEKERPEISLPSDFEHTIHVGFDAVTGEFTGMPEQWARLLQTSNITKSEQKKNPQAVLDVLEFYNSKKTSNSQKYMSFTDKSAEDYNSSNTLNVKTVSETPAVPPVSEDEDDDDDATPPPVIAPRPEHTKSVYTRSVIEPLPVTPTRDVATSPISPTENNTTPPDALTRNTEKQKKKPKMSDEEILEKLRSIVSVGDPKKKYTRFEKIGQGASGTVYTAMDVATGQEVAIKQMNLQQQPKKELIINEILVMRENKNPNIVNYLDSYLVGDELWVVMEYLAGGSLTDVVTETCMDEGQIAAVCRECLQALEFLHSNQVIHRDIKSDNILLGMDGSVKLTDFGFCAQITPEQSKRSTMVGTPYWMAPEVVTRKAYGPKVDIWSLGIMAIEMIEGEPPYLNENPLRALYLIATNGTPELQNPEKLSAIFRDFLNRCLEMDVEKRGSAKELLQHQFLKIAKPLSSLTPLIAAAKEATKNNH

As for `O=P(O)(O)OC1C(OP(=O)(O)O)C(OP(=O)(O)O)C(OP(=O)(O)O)C(OP(=O)(O)O)C1OP(=O)(O)O` [IP6, (1R,2S,3R,4R,5S,6s)-cyclohexane-1,2,3,4,5,6-hexayl hexakis[dihydrogen (phosphate)]], in series [1] (setting [4]), the “MMP-1 expression, PMA and IP6 in comparison to PMA-stimulated cells” value was “significant decrease”; the “MMP-9 transcription induced by PMA” value was “down-regulated”; the “level of both MMP-2 and MMP-3 mRNAs in PMA-stimulated cells” value is reported as “decreased”. Also, the “MMP-2, MMP-3, MMP-10, MMP-13, and TIMP-1 expression” value in series [1] (Caco-2, 2.5 mM of IP6, 6 and 12 h) is recorded as “significant decrease”.
Consider `Oc1ccc2ccccc2c1SSc1c(O)ccc2ccccc12` [IPA3], for which the “insulin-stimulated associations of p41ARC, N-WASP, cortactin and actin” value in series [2] is “ablated”.
Consider `COc1cc(/C=C/C(=O)CC(=O)/C=C/c2ccc(O)c(OC)c2)ccc1O` [curcumin, (1E,6E)-1,7-Bis(4-hydroxy-3-methoxyphenyl)hepta-1,6-diene-3,5-dione], for which the TSC1/2 interaction entry in series [3] was “did not alter”. For the same compound, the raptor-mTOR association entry in series [3] (leading to inhibition of mTORC1 activity) is given as “able to dissociate raptor from mTOR”. For the same compound, the “phosphorylation of p70S6kinase 1 (S6K1) and 4E-BP1” value in series [3] (numerous cancer cell lines) is reported as “inhibits”.
